Results taken from patent publication EP1752193A1, “Use of one or more cyclic 1,2-alkylene carbonates as stabilizer and activity enhancer for preservatives, corresponding composition” (Dr. Straetmans Chemische Produkte GmbH, priority 2005, dated 2007).

Assays:
Type in all cases: cell-based
Aspergillus Niger = assay: microbiological challenge test (preservative efficacy, Ph. Eur. 1997 5.1.3); settings: emulsion with 0,50 preservative, 2,00 carbonate where named
Description: (§1) Ergebnisse des mikrobiologischen Belastungstests, durchgeführt nach europäischem Arzneibuch 1997: 5.1.3 Prüfung auf ausreichende Konservierung (entspricht Deutschem Arzneibuch: VIII.14) für die Beispielrezeptur nach 1.:
(§2) Ergebnisse des mikrobiologischen Belastungstests, durchgeführt nach europäischem Arzneibuch 1997: 5.1.3 Prüfung auf ausreichende Konservierung (entspricht Deutschem Arzneibuch: VIII.14) für die Beispielrezeptur nach 3.:
(§3) Ergebnisse des mikrobiologischen Belastungstests, durchgeführt nach europäischem Arzneibuch 1997: 5.1.3 Prüfung auf ausreichende Konservierung (entspricht Deutschem Arzneibuch: VIII.14) für die Beispielrezeptur nach 4.:
(§4) Ergebnisse des mikrobiologischen Belastungstests, durchgeführt nach europäischem Arzneibuch 1997: 5.1.3 Prüfung auf ausreichende Konservierung (entspricht Deutschem Arzneibuch: VIII.14) für die Beispielrezeptur nach 5.:
(§5) Ergebnisse des mikrobiologischen Belastungstests, durchgeführt nach europäischem Arzneibuch 1997: 5.1.3 Prüfung auf ausreichende Konservierung (entspricht Deutschem Arzneibuch: VIII.14) für die Beispielrezeptur nach 6.: […]

Staphylococcus aureus = assay: as above; settings: emulsion with 0,50 preservative, 2,00 carbonate where named
Description: as §1, §2, §3, §4, §5

Pseudomonas Aeruginosa = assay: as above; settings: emulsion with 0,50 preservative, 2,00 carbonate where named
Description: as §1, §2, §3, §4, §5

Escherichia Coli = assay: as above; settings: emulsion with 0,50 preservative, 2,00 carbonate where named
Description: as §1, §2, §3, §4, §5

Candida Albicans = assay: as above; settings: emulsion with 0,50 preservative, 2,00 carbonate where named
Description: as §1, §2, §3, §4, §5

Mikroorganismen = assay: synergistic enhancement of antimicrobial agents by cyclic 1,2-alkylene carbonates; settings: combination of cyclic 1,2-alkylene carbonate with preservative or antimicrobial additive
Description: Die Verwendung dieser zyklischen 1,2-Alkylencarbonate zur Herstellung von Mischungen mit herkömmlichen Konservierungsmitteln und der erfindungsgemäße Einsatz dieser Mischungen in kosmetischen oder dermatologischen Anwendungen zeigte überraschenderweise, dass die Effizienz der Konservierungsmittel in Konzentrationen, die für sich allein keine antimikrobielle Wirkung mehr zeigten, durch den Zusatz der zyklischen 1,2-Alkylencarbonate erheblich gesteigert werden kann und somit der Anteil der Konservierungsmittel in den entsprechenden Produkten signifikant gesenkt werden konnte.
Zyklische 1,2-Alkylencarbonate, für die dieser synergistische Effekt nachgewiesen werden konnten, finden sich bevorzugt in der Gruppe der linearen und verzweigten 1,2-Alkylencarboate mit einer Kettenlänge von n = 4 - 8, z.B. 1,2-Butylencarbonat, 1,2-Pentylencarbonat, 1,2-Hexylencarbonat und 1,2-Octylencarbonat.
Konservierungsmittel im Sinne der Erfindung, für die dieser synergistische Effekt nachgewiesen werden konnte, sind Methylparaben, Ethylparaben, Propylparaben, Isopropylparaben, Butylparaben und die Mischungen dieser Parabene, Phenoxyethanol, Benzoesäure und ihre Ester und Salze, Sorbinsäure und ihre Salze sowie Benzylalkohol. Die zu erwartenden synergistischen Effekte von 1,2-Alkylencarbonaten mit Iodopropinylbutylcarbamat, Formaldehyd and Formaldehyd-Abspalter (z.B. DMDM-Hydantoin, Imidazolinylharnstoff, Paraformaldehyd), Chlorphenesin, Bronopol, Methyldibromglutaronitril, Dehydracetsäure und ihre Salze, Polyaminopropylbiguanide, Chlorhexidin und seine Derivate (z.B. Chlorhexidinacetat, Chlorhexidingluconat, Chlorhexidinhydrochlorid), Methylisothiazolinon und Methylchloroisothiazolinone neben den in Anhang 6, Teil A und B der Kosmetikverordnung aufgeführten weiteren Stoffklassen oder Mischungen der genannten Konservierungsmittel werden ebenfalls in dieser Erfindung beansprucht.
Multifunktionellen Kosmetikadditive mit antimikrobiellen Eigenschaften im Sinne dieser Erfindung finden sich vor allem in der Gruppe der mittelkettigen polaren Substanzen. Diese Gruppe umfasst Polyole mit 5 - 12 Kohlenstoffatomen, wie z.B. Pentylenglycol, Hexylenglycol, 1,2-Hexandiol, Caprylyl Glycol oder 2-Methyl-1,3-propandiol, Monoester aus Glycerin und Fettsäuren der Kettenlänge n = 6 - 12, wie z.B. Glyceryl Caprylate, Glyceryl Caprate oder Glyceryl Laurate, Ether der Glycerins mit linearen oder verzweigten Alkanolen der Kettenlänge n = 6 - 12, wie z.B. das Ethylhexylglycerin sowie N-Acylderivate von Aminosäuren, z.B. N.Undecenylglycin.

SMILES: OCc1ccccc1 [Benzylalkohol]
- Koloniebildende Einheiten / g nach Beimpfung mit: Aspergillus Niger (Aspergillus Niger; 0 Tage (inoculum)): 170000 Koloniebildende Einheiten / g
- Koloniebildende Einheiten / g nach Beimpfung mit: Aspergillus Niger (Aspergillus Niger; 2 Tage): 64000 Koloniebildende Einheiten / g
- Koloniebildende Einheiten / g nach Beimpfung mit: Aspergillus Niger (Aspergillus Niger; 7 Tage): 60000 Koloniebildende Einheiten / g
- Koloniebildende Einheiten / g nach Beimpfung mit: Aspergillus Niger (Aspergillus Niger; 14 Tage): 59000 Koloniebildende Einheiten / g
- Koloniebildende Einheiten / g nach Beimpfung mit: Aspergillus Niger (Aspergillus Niger; 28 Tage): 61000 Koloniebildende Einheiten / g
- Koloniebildende Einheiten / g nach Beimpfung mit: Staphylococcus aureus (Staphylococcus aureus; 0 Tage (inoculum)): 250000 Koloniebildende Einheiten / g
- Koloniebildende Einheiten / g nach Beimpfung mit: Staphylococcus aureus (Staphylococcus aureus; 2 Tage): 100000 Koloniebildende Einheiten / g
- Koloniebildende Einheiten / g nach Beimpfung mit: Staphylococcus aureus (Staphylococcus aureus; 7 Tage): 4000 Koloniebildende Einheiten / g
- Koloniebildende Einheiten / g nach Beimpfung mit: Staphylococcus aureus (Staphylococcus aureus; 14 Tage): <10 Koloniebildende Einheiten / g
- Koloniebildende Einheiten / g nach Beimpfung mit: Staphylococcus aureus (Staphylococcus aureus; 28 Tage): <10 Koloniebildende Einheiten / g
- Koloniebildende Einheiten / g nach Beimpfung mit: Pseudomonas Aeruginosa (Pseudomonas Aeruginosa; 0 Tage (inoculum)): 210000 Koloniebildende Einheiten / g
- Koloniebildende Einheiten / g nach Beimpfung mit: Pseudomonas Aeruginosa (Pseudomonas Aeruginosa; 2 Tage): 40000 Koloniebildende Einheiten / g
- Koloniebildende Einheiten / g nach Beimpfung mit: Pseudomonas Aeruginosa (Pseudomonas Aeruginosa; 7 Tage): 12000 Koloniebildende Einheiten / g
- Koloniebildende Einheiten / g nach Beimpfung mit: Pseudomonas Aeruginosa (Pseudomonas Aeruginosa; 14 Tage): 1000 Koloniebildende Einheiten / g
- Koloniebildende Einheiten / g nach Beimpfung mit: Pseudomonas Aeruginosa (Pseudomonas Aeruginosa; 28 Tage): <10 Koloniebildende Einheiten / g
- Koloniebildende Einheiten / g nach Beimpfung mit: Escherichia Coli (Escherichia Coli; 0 Tage (inoculum)): 810000 Koloniebildende Einheiten / g
- Koloniebildende Einheiten / g nach Beimpfung mit: Escherichia Coli (Escherichia Coli; 2 Tage): 100000 Koloniebildende Einheiten / g
- Koloniebildende Einheiten / g nach Beimpfung mit: Escherichia Coli (Escherichia Coli; 7 Tage): 100000 Koloniebildende Einheiten / g
- Koloniebildende Einheiten / g nach Beimpfung mit: Escherichia Coli (Escherichia Coli; 14 Tage): 52000 Koloniebildende Einheiten / g
- Koloniebildende Einheiten / g nach Beimpfung mit: Escherichia Coli (Escherichia Coli; 28 Tage): 8000 Koloniebildende Einheiten / g
- Koloniebildende Einheiten / g nach Beimpfung mit: Candida Albicans (Candida Albicans; 0 Tage (inoculum)): 410000 Koloniebildende Einheiten / g
- Koloniebildende Einheiten / g nach Beimpfung mit: Candida Albicans (Candida Albicans; 2 Tage): 70000 Koloniebildende Einheiten / g
- Koloniebildende Einheiten / g nach Beimpfung mit: Candida Albicans (Candida Albicans; 7 Tage): 50000 Koloniebildende Einheiten / g
- Koloniebildende Einheiten / g nach Beimpfung mit: Candida Albicans (Candida Albicans; 14 Tage): 50000 Koloniebildende Einheiten / g
- Koloniebildende Einheiten / g nach Beimpfung mit: Candida Albicans (Candida Albicans; 28 Tage): 45000 Koloniebildende Einheiten / g

SMILES: CCC1COC(=O)O1 (stereo not drawn) [BC, 1,2-Butylencarbonat]
- synergistische Effekt (Mikroorganismen): Besonders ausgeprägt Effekte

SMILES: CCCCCCC(O)CO (stereo not drawn) [Caprylyl Glycol]
- synergistische Effekt (Mikroorganismen): Besonders ausgeprägte Effekte

SMILES: CCCC1COC(=O)O1 (stereo not drawn) [PC, 1,2-Pentylencarbonat]
- synergistische Effekt (Mikroorganismen): Besonders ausgeprägt Effekte

SMILES: CCCCCCCC(=O)OCC(O)CO (stereo not drawn) [Glyceryl Caprylate]
- synergistische Effekt (Mikroorganismen): Besonders ausgeprägte Effekte

SMILES: OCCOc1ccccc1 [Phenoxyethanol]
- Koloniebildende Einheiten / g nach Beimpfung mit: Aspergillus Niger (Aspergillus Niger; 0 Tage (inoculum)): 320000 Koloniebildende Einheiten / g
- Koloniebildende Einheiten / g nach Beimpfung mit: Aspergillus Niger (Aspergillus Niger; 2 Tage): 60000 Koloniebildende Einheiten / g
- Koloniebildende Einheiten / g nach Beimpfung mit: Aspergillus Niger (Aspergillus Niger; 7 Tage): 60000 Koloniebildende Einheiten / g
- Koloniebildende Einheiten / g nach Beimpfung mit: Aspergillus Niger (Aspergillus Niger; 14 Tage): 60000 Koloniebildende Einheiten / g
- Koloniebildende Einheiten / g nach Beimpfung mit: Aspergillus Niger (Aspergillus Niger; 28 Tage): 50000 Koloniebildende Einheiten / g
- Koloniebildende Einheiten / g nach Beimpfung mit: Staphylococcus aureus (Staphylococcus aureus; 0 Tage (inoculum)): 380000 Koloniebildende Einheiten / g
- Koloniebildende Einheiten / g nach Beimpfung mit: Staphylococcus aureus (Staphylococcus aureus; 2 Tage): 100000 Koloniebildende Einheiten / g
- Koloniebildende Einheiten / g nach Beimpfung mit: Staphylococcus aureus (Staphylococcus aureus; 7 Tage): 100000 Koloniebildende Einheiten / g
- Koloniebildende Einheiten / g nach Beimpfung mit: Staphylococcus aureus (Staphylococcus aureus; 14 Tage): 84000 Koloniebildende Einheiten / g
- Koloniebildende Einheiten / g nach Beimpfung mit: Staphylococcus aureus (Staphylococcus aureus; 28 Tage): 80000 Koloniebildende Einheiten / g
- Koloniebildende Einheiten / g nach Beimpfung mit: Pseudomonas Aeruginosa (Pseudomonas Aeruginosa; 0 Tage (inoculum)): 600000 Koloniebildende Einheiten / g
- Koloniebildende Einheiten / g nach Beimpfung mit: Pseudomonas Aeruginosa (Pseudomonas Aeruginosa; 2 Tage): 8000 Koloniebildende Einheiten / g
- Koloniebildende Einheiten / g nach Beimpfung mit: Pseudomonas Aeruginosa (Pseudomonas Aeruginosa; 7 Tage): 10000 Koloniebildende Einheiten / g
- Koloniebildende Einheiten / g nach Beimpfung mit: Pseudomonas Aeruginosa (Pseudomonas Aeruginosa; 14 Tage): 10000 Koloniebildende Einheiten / g
- Koloniebildende Einheiten / g nach Beimpfung mit: Pseudomonas Aeruginosa (Pseudomonas Aeruginosa; 28 Tage): 10000 Koloniebildende Einheiten / g
- Koloniebildende Einheiten / g nach Beimpfung mit: Escherichia Coli (Escherichia Coli; 0 Tage (inoculum)): 3000000 Koloniebildende Einheiten / g
- Koloniebildende Einheiten / g nach Beimpfung mit: Escherichia Coli (Escherichia Coli; 2 Tage): 100000 Koloniebildende Einheiten / g
- Koloniebildende Einheiten / g nach Beimpfung mit: Escherichia Coli (Escherichia Coli; 7 Tage): 100000 Koloniebildende Einheiten / g
- Koloniebildende Einheiten / g nach Beimpfung mit: Escherichia Coli (Escherichia Coli; 14 Tage): 100000 Koloniebildende Einheiten / g
- Koloniebildende Einheiten / g nach Beimpfung mit: Escherichia Coli (Escherichia Coli; 28 Tage): 70000 Koloniebildende Einheiten / g
- Koloniebildende Einheiten / g nach Beimpfung mit: Candida Albicans (Candida Albicans; 0 Tage (inoculum)): 310000 Koloniebildende Einheiten / g
- Koloniebildende Einheiten / g nach Beimpfung mit: Candida Albicans (Candida Albicans; 2 Tage): 100000 Koloniebildende Einheiten / g
- Koloniebildende Einheiten / g nach Beimpfung mit: Candida Albicans (Candida Albicans; 7 Tage): 100000 Koloniebildende Einheiten / g
- Koloniebildende Einheiten / g nach Beimpfung mit: Candida Albicans (Candida Albicans; 14 Tage): 100000 Koloniebildende Einheiten / g
- Koloniebildende Einheiten / g nach Beimpfung mit: Candida Albicans (Candida Albicans; 28 Tage): 80000 Koloniebildende Einheiten / g
